According to US9340577B2, “HLA binding motifs and peptides and their uses” (priority 1992, dated 2016):
No end group written: not given here.

How the values were obtained:
Test in all cases: biochemical
Assay type in all cases: binding
HLA-A*0201 (HLA-A2.1) = HLA-A*0201 (HLA-A2.1) (Homo sapiens, UniProt P04439, D140Y/D185E/D98H/E176V/E277Q/G131W/G231S/I119V/I121R/I166T/I218V/L300P/L318F/N151K/N90K/P208A/P217A/Q86G/Q94H/R138H/R169H/T345S)
A*0203 = A*0203 (Homo sapiens, UniProt P04439, A173T/D140Y/D185E/D98H/E277Q/G131W/G231S/I119V/I121R/I166T/I218V/L180W/L300P/L318F/N151K/N90K/P208A/P217A/Q86G/Q94H/R138H/R169H/T345S)
A*0206 = A*0206 (Homo sapiens, UniProt P04439, D140Y/D185E/D98H/E176V/E277Q/F33Y/G131W/G231S/I119V/I121R/I166T/I218V/L300P/L318F/N151K/N90K/P208A/P217A/Q86G/Q94H/R138H/R169H/T345S)
A*6802 = A*6802 (Homo sapiens, UniProt P04439, A269V/D140Y/D185E/E176V/E277Q/E87N/F33Y/G231S/I121R/I166T/I218V/L180W/L300P/L318F/N151K/P208A/P217A/Q86R/R138H/R169H/S129P/T345S/V36M)
A*0202 = A*0202 (Homo sapiens, UniProt P04439, D140Y/D185E/D98H/E176V/E277Q/G131W/G231S/I119L/I121R/I166T/I218V/L180W/L300P/L318F/N151K/N90K/P208A/P217A/Q67R/Q86G/Q94H/R138H/R169H/T345S)

Row | Sequence | IC50 (HLA-A*0201 (HLA-A2.1)) [nM] | IC50 (A*0203) [nM] | IC50 (A*0206) [nM] | IC50 (A*6802) [nM] | IC50 (A*0202) [nM]
1 | SLPVSPRLQV [Peptide 9013.0222] | 7310 | 155 | > 20000 | > 20000 | –
2 | RMLQQLLFT [Peptide 1525.17] | – | 493 | – | – | 1870
3 | RLQLSNGNRV [Peptide 9013.0224] | 17600 | 669 | > 20000 | > 20000 | –
4 | TLESTPFNV [Peptide 9013.0012] | 216 | 221 | – | 241 | 19
5 | WLNGQSLPV [Peptide 9013.0090] | – | 6.4 | – | – | 8.6
6 | MTANPPIPV [Peptide 1539.01] | 2.3 | 2.5 | – | 2 | 7.2
7 | TQELFIPNV [Peptide 9013.0059] | 308 | 3320 | 55 | 4930 | –
8 | KLLSKLLCV [Peptide 1578.03] | 55 | 36 | – | > 20000 | 68
9 | YVCGIQNSVSV [Peptide 9013.0337] | – | 159 | 58 | – | –
10 | GVNLSLSCHAV [Peptide 9013.0311] | 2090 | 2590 | – | 947 | 63
11 | NLAEGKEVLLL [Peptide 9013.0271] | 7590 | – | > 20000 | > 20000 | 18
12 | KLITVSAEL [Peptide 9013.0084] | 71 | 27 | – | > 20000 | 3.3
13 | VLEGKEVLL [Peptide 9013.0019] | 2910 | – | > 20000 | > 20000 | 18
14 | GLNLSLSCHAA [Peptide 9013.0312] | 1420 | – | > 20000 | > 20000 | 47
15 | KLTPLCVIL [Peptide 1516.15] | 356 | 968 | – | > 20000 | 74
16 | VLFTCEPEA [Peptide 9013.0089] | 240 | – | 4570 | > 20000 | 70

Row | Sequence | IC50 (HLA-A*0201 (HLA-A2.1)) [nM] | IC50 (A*0203) [nM] | IC50 (A*0206) [nM] | IC50 (A*6802) [nM] | IC50 (A*0202) [nM]
17 | RLYVCGIQNSV [Peptide 9013.0335] | 170 | 24 | – | > 20000 | 6.3
18 | QQHTQVLFV [Peptide 9013.0102] | 2100 | 80 | – | > 20000 | 1420
19 | FLDAFKKFL [Peptide 1578.31] | 158 | – | 420 | > 20000 | 25
20 | ALDGNDISV [Peptide 1578.33] | 40 | – | 48 | > 20000 | 41
21 | MLGVLVGVALI [Peptide 9013.0349] | 4960 | – | 4730 | 8790 | 432
22 | KLTSLCVTL [Peptide 1537.03] | 91 | 91 | – | > 20000 | 29
23 | TTVTTITVYV [Peptide 9013.0192] | 1040 | 326 | – | 17 | 21
24 | RLENAILFTV [Peptide 1593.60] | – | 160 | – | 15800 | 24
25 | ILYPNASLL [Peptide 9013.0030] | 130 | 4.2 | – | 14700 | 1.8
26 | VLYGPDAPV [Peptide 9013.0052] | 48 | 19 | – | 3260 | 2.4
27 | TVQDVSLEV [Peptide 1593.55] | – | 56 | – | 15 | 483
28 | TQVLFIAKV [Peptide 9013.0105] | 1040 | 27 | 46 | – | –
29 | LLQQYCLYL [Peptide 1578.01] | 224 | 17 | – | – | 11
30 | AIFGVNPTI [Peptide 86.0178] | 1820 | 324 | – | 3540 | 13
31 | GLMIGVLVGVA [Peptide 9013.0345] | 2190 | – | 3300 | > 20000 | 39
